Test results as given in patent US20190322676A1, “CERAMIDE GALACTOSYLTRANSFERASE INHIBITORS FOR THE TREATMENT OF DISEASE” (BioMarin Pharmaceutical Inc., priority 2016, published 2019).
pIC50: −log10 of the molar value. Where a name gives a salt, the structure may show the parent alone.

target: T1, human CGT (ceramide galactosyltransferase), CHO/CGT lysate (Homo sapiens, UniProt Q16880); test: CGT enzyme assay, RapidFire/MS/MS readout (Table 1 ranges with one asterisk *); type: biochemical; settings: RapidFire method (range with one asterisk *)
T1 construct: Full-length human CGT cDNA was cloned into the BamH1/Xho1 site of pcDNA3.1 (+); expressed in transfected cells; host or cells: Chinese hamster ovary (CHO) cells; lysate prepared with M-PER
T1 sequence (Q16880 21-541): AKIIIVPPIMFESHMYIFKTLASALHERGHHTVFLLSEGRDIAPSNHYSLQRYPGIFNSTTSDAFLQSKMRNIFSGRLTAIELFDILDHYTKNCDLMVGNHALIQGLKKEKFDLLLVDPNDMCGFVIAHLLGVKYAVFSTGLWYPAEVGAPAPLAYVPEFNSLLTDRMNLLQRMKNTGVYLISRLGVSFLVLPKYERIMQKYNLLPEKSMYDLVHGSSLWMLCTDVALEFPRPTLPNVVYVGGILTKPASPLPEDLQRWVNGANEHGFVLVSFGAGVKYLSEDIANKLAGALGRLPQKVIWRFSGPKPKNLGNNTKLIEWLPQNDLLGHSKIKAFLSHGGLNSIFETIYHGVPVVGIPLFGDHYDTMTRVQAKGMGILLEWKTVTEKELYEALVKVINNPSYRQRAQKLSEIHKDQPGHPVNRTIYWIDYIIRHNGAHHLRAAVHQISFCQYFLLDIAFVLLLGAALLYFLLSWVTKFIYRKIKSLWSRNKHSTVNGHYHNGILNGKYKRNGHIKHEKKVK
Procedure, shortened: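 Lysate (4 μg) of CHO cells transfected with full-length human CGT incubated 1 h at 37 °C with compound (0.001–50 μM) in pH 7.2 HEPES buffer with 10 μM C6-NBD-dihydro-ceramide, 17.5 μM UDP-galactose, Mg2+/Mn2+, CHAPS, BSA, 0.5% DMSO; ** set also contained 0.01% Tween 80. Product quantified by RapidFire/MS/MS, normalized to internal standard; IC50 from sigmoidal variable-slope fits.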

Structure (SMILES) | pIC50
CCCCOc1cc(C(F)(F)[C@@H](NS(=O)(=O)c2ccc(OCC3CCCCC3)cc2)C(=O)N2CCC(N)CC2)ccc1Cl [Compound 127-2, (S)—N-(3-(4-aminopiperidin-1-yl)-1-(3-butoxy-4-chlorophenyl)-1,1-difluoro-3-oxopropan-2-yl)-4-(cyclohexylmethoxy)benzenesulfonamide] | 5.00 to 6.00
COc1cc(C(F)(F)[C@H](NS(=O)(=O)c2ccc(OCC3CCCCC3)cc2)C(=O)N2C3CCC2CC(N)C3)ccc1Br (stereo partly drawn) [Compound 128-1, N-((2R)-3-(3-amino-8-azabicyclo[3.2.1]octan-8-yl)-1-(4-bromo-3-methoxyphenyl)-1,1-difluoro-3-oxopropan-2-yl)-4-(cyclohexylmethoxy) benzenesulfonamide] | > 6.00
COc1cc(C(F)(F)[C@@H](NS(=O)(=O)c2ccc(OCC3CCCCC3)cc2)C(=O)N2C3CCC2CC(N)C3)ccc1Br (stereo partly drawn) [Compound 128-2, N-((2S)-3-(3-amino-8-azabicyclo[3.2.1]octan-8-yl)-1-(4-bromo-3-methoxyphenyl)-1,1-difluoro-3-oxopropan-2-yl)-4-(cyclohexylmethoxy)benzenesulfonamide] | 5.00 to 6.00
COc1cc(C(F)(F)[C@H](NS(=O)(=O)c2ccc(OCC3CCCCC3)cc2)C(=O)N2CCC(N)CC2)ccc1Cl [Compound 129-1, (R)—N-(3-(4-aminopiperidin-1-yl)-1-(4-chloro-3-methoxyphenyl)-1,1-difluoro-3-oxopropan-2-yl)-4-(cyclohexylmethoxy)benzenesulfonamide] | 5.00 to 6.00
COc1cc(C(F)(F)[C@@H](NS(=O)(=O)c2ccc(OCC3CCCCC3)cc2)C(=O)N2CCC(N)CC2)ccc1Cl [Compound 129-2, (S)—N-(3-(4-aminopiperidin-1-yl)-1-(4-chloro-3-methoxyphenyl)-1,1-difluoro-3-oxopropan-2-yl)-4-(cyclohexylmethoxy)benzenesulfonamide] | 4.52 to 5.00
NC1CC2CCC(C1)N2C(=O)[C@@H](NS(=O)(=O)c1ccc2cc(OC3CCCC3)ccc2c1)C(F)(F)c1ccc(Cl)s1 (stereo partly drawn) [Compound 130-1, N-((2R)-3-(3-amino-8-azabicyclo[3.2.1]octan-8-yl)-1-(5-chlorothiophen-2-yl)-1,1-difluoro-3-oxopropan-2-yl)-6-(cyclopentyloxy)naphthalene-2-sulfonamide] | 5.00 to 6.00
NC1CC2CCC(C1)N2C(=O)[C@H](NS(=O)(=O)c1ccc2cc(OC3CCCC3)ccc2c1)C(F)(F)c1ccc(Cl)s1 (stereo partly drawn) [Compound 130-2, N-((2S)-3-(3-amino-8-azabicyclo[3.2.1]octan-8-yl)-1-(5-chlorothiophen-2-yl)-1,1-difluoro-3-oxopropan-2-yl)-6-(cyclopentyloxy)naphthalene-2-sulfonamide] | 4.52 to 5.00
NC1CCN(C(=O)[C@@H](NS(=O)(=O)c2ccc3cc(OC4CCCC4)ccc3c2)C(F)(F)c2ccc(Cl)s2)CC1 [Compound 131-1, (R)—N-(3-(4-aminopiperidin-1-yl)-1-(5-chlorothiophen-2-yl)-1,1-difluoro-3-oxopropan-2-yl)-6-(cyclopentyloxy)naphthalene-2-sulfonamide] | 5.00 to 6.00
NC1CCN(C(=O)[C@H](NS(=O)(=O)c2ccc3cc(OC4CCCC4)ccc3c2)C(F)(F)c2ccc(Cl)s2)CC1 [Compound 131-2, (S)—N-(3-(4-aminopiperidin-1-yl)-1-(5-chlorothiophen-2-yl)-1,1-difluoro-3-oxopropan-2-yl)-6-(cyclopentyloxy)naphthalene-2-sulfonamide] | 5.00 to 6.00
N[C@H]1CCCN(C(=O)[C@@H](NS(=O)(=O)c2ccc3cc(OC4CCCC4)ccc3c2)C(F)(F)c2ccc(Br)cc2)C1 [Compound 132-1, N—((R)-3-((S)-3-aminopiperidin-1-yl)-1-(4-bromophenyl)-1,1-difluoro-3-oxopropan-2-yl)-6-(cyclopentyloxy)naphthalene-2-sulfonamide trifluoroacetate] | 5.00 to 6.00
N[C@H]1CCCN(C(=O)[C@H](NS(=O)(=O)c2ccc3cc(OC4CCCC4)ccc3c2)C(F)(F)c2ccc(Br)cc2)C1 [Compound 132-2, N—((S)-3-((S)-3-aminopiperidin-1-yl)-1-(4-bromophenyl)-1,1-difluoro-3-oxopropan-2-yl)-6-(cyclopentyloxy)naphthalene-2-sulfonamide trifluoroacetate] | 4.52 to 5.00
NC1CC2CCC(C1)N2C(=O)[C@@H](NC(=O)C(=O)c1ccc2cc(OC3CCCC3)ccc2c1)C(F)(F)c1ccc(-c2ccc(Cl)cc2)cc1 (stereo partly drawn) [Compound 133-1, N-((2R)-3-(3-amino-8-azabicyclo[3.2.1]octan-8-yl)-1-(4′-chloro-[1,1′-biphenyl]-4-yl)-1,1-difluoro-3-oxopropan-2-yl)-2-(6-(cyclopentyloxy)naphthalen-2-yl)-2-oxoacetamide trifluoroacetate] | 5.00 to 6.00
NC1CC2CCC(C1)N2C(=O)[C@H](NC(=O)C(=O)c1ccc2cc(OC3CCCC3)ccc2c1)C(F)(F)c1ccc(-c2ccc(Cl)cc2)cc1 (stereo partly drawn) [Compound 133-2, N-((2S)-3-(3-amino-8-azabicyclo[3.2.1]octan-8-yl)-1-(4′-chloro-[1,1′-biphenyl]-4-yl)-1,1-difluoro-3-oxopropan-2-yl)-2-(6-(cyclopentyloxy)naphthalen-2-yl)-2-oxoacetamide trifluoroacetate] | 4.00 to 4.52
NC1CCN(C(=O)[C@@H](NC(=O)C(=O)c2ccc(OCC3CCCCC3)cc2)C(F)(F)c2ccc(-c3ccc(Cl)cc3)cc2)CC1 [Compound 134-1, (R)—N-(3-(4-aminopiperidin-1-yl)-1-(4′-chloro-[1,1′-biphenyl]-4-yl)-1,1-difluoro-3-oxopropan-2-yl)-2-(4-(cyclohexylmethoxy)phenyl)-2-oxoacetamide trifluoroacetate] | 4.52 to 5.00
NC1CCN(C(=O)[C@H](NC(=O)C(=O)c2ccc(OCC3CCCCC3)cc2)C(F)(F)c2ccc(-c3ccc(Cl)cc3)cc2)CC1 [Compound 134-2, (S)—N-(3-(4-aminopiperidin-1-yl)-1-(4′-chloro-[1,1′-biphenyl]-4-yl)-1,1-difluoro-3-oxopropan-2-yl)-2-(4-(cyclohexylmethoxy)phenyl)-2-oxoacetamide trifluoroacetate] | 4.00 to 4.52
COc1cc(C(F)(F)[C@H](NS(=O)(=O)c2ccc3cc(OC4CCCC4)ccc3c2)C(=O)N2C3CCC2CC(N)C3)ccc1-c1ccc(Cl)cc1 (stereo partly drawn) [Compound 135-1, N-((2R)-3-(3-amino-8-azabicyclo[3.2.1]octan-8-yl)-1-(4′-chloro-2-methoxy-[1,1′-biphenyl]-4-yl)-1,1-difluoro-3-oxopropan-2-yl)-6-(cyclopentyloxy) naphthalene-2-sulfonamide trifluoroacetate] | > 6.00
COc1cc(C(F)(F)[C@@H](NS(=O)(=O)c2ccc3cc(OC4CCCC4)ccc3c2)C(=O)N2C3CCC2CC(N)C3)ccc1-c1ccc(Cl)cc1 (stereo partly drawn) [Compound 135-2, N-((2S)-3-(3-amino-8-azabicyclo[3.2.1]octan-8-yl)-1-(4′-chloro-2-methoxy-[1,1′-biphenyl]-4-yl)-1,1-difluoro-3-oxopropan-2-yl)-6-(cyclopentyloxy)naphthalene-2-sulfonamide trifluoroacetate] | 5.00 to 6.00
NC1CC2CCC(C1)N2C(=O)[C@@H](NC(=O)[C@H](O)c1ccc2cc(OC3CCCC3)ccc2c1)C(F)(F)c1ccc(-c2ccc(Cl)cc2)cc1 (stereo partly drawn) [Compound 136-1, (2R)—N-((2R)-3-(3-amino-8-azabicyclo[3.2.1]octan-8-yl)-1-(4′-chloro-[1,1′-biphenyl]-4-yl)-1,1-difluoro-3-oxopropan-2-yl)-2-(6-(cyclopentyloxy)naphthalen-2-yl)-2-hydroxyacetamide trifluoroacetate] | 5.00 to 6.00
NC1CC2CCC(C1)N2C(=O)[C@H](NC(=O)[C@@H](O)c1ccc2cc(OC3CCCC3)ccc2c1)C(F)(F)c1ccc(-c2ccc(Cl)cc2)cc1 (stereo partly drawn) [Compound 136-2, (2S)—N-((2S)-3-(3-amino-8-azabicyclo[3.2.1]octan-8-yl)-1-(4′-chloro-[1,1′-biphenyl]-4-yl)-1,1-difluoro-3-oxopropan-2-yl)-2-(6-(cyclopentyloxy)naphthalen-2-yl)-2-hydroxyacetamide trifluoroacetate] | 4.00 to 4.52
NC1CC2CCC(C1)N2C(=O)[C@H](NC(=O)[C@H](O)c1ccc2cc(OC3CCCC3)ccc2c1)C(F)(F)c1ccc(-c2ccc(Cl)cc2)cc1 (stereo partly drawn) [Compound 136-4, (2R)—N-((2S)-3-(3-amino-8-azabicyclo[3.2.1]octan-8-yl)-1-(4′-chloro-[1,1′-biphenyl]-4-yl)-1,1-difluoro-3-oxopropan-2-yl)-2-(6-(cyclopentyloxy)naphthalen-2-yl)-2-hydroxyacetamide trifluoroacetate] | 4.00 to 4.52
O=C([C@@H](NS(=O)(=O)c1ccc2cc(OC3CCCC3)ccc2c1)C(F)(F)c1ccc(-c2ccc(Cl)cc2)cc1)N1CCNCC1 [Compound 137-1, (R)—N-(1-(4′-chloro-[1,1′-biphenyl]-4-yl)-1,1-difluoro-3-oxo-3-(piperazin-1-yl)propan-2-yl)-6-(cyclopentyloxy)naphthalene-2-sulfonamide trifluoroacetate] | 5.00 to 6.00
